# In ChEMBL document CHEMBL6178014, “Discovery and Administration Optimization of Novel Selective CDK9 Inhibitor, 1-7a-B1, for Improved Pharmacokinetics and Antitumor Efficacy In Vivo” (J Med Chem, 2025):
# Activity calls are given as the source filed them. No cut-off for these calls is given here.
# Experiments:
# HCT-116 [1] = assay: Antitumor activity against human HCT-116 cells xenografted in female BALB/c nu-nu mouse assessed as reduction in Ki67 positive cells at 20 mg/kg, po as submicron emulsion by staining based analysis; assay type: functional, organism-based
# [2] = Oral bioavailability in Sprague-Dawley rat at 30 mg/kg as submicron emulsion measured after 24 hrs by LC-MS/MS analysis; assay type: ADME, organism-based; settings: in vivo
# [3] = target: Cellular tumor antigen p53 (Homo sapiens) (UniProt P04637); assay: Induction of stabilization of wild type p53 in human HCT-116 cells at 100 to 400 nM incubated for 48 hrs by Western blot analysis; assay type: cell-based; settings: dose 100-400 nM
# [4] = Volume of distribution in Sprague-Dawley rat at 30 mg/kg, po as submicron emulsion measured after 24 hrs by LC-MS/MS analysis; assay type: ADME, organism-based; settings: in vivo
# CDK9/cyclin T1 [5] = target: T1, CDK9/cyclin T1 (Homo sapiens, UniProt P50750); assay: Inhibition of His-tagged full length human recombinant CDK9/cyclinT1 using KTFCGTPEYLAPEVRREPRILSEEEQEMFRDFDYIADWC as substrate incubated for 60 mins by ADP-Glo kinase assay; assay type: protein-complex assay
# A549 = assay: Cytotoxicity against human A549 cells assessed as cell viability incubated for 48 hrs by CCK8 assay; assay type: functional, cell-based
# [6] = Metabolic stability in human liver microsome assessed as intrinsic clearance at 100 uM pre-incubated with compound for 60 mins followed by NADPH addition and measured up to 60 mins by LC-MS/MS analysis; assay type: ADME; settings: liver microsomes, read-out: CLH
# HCT-116 [7] = assay: Induction of apoptosis in human HCT-116 cells assessed as increase in caspase-3 activity at 100 to 200 nM incubated for 48 hrs by GreenNuc substrate based flow cytometry analysis; assay type: functional, cell-based; settings: dose 100-200 nM
# CDK4/Cyclin D3 = CDK4/Cyclin D3 (Homo sapiens, UniProt P11802); assay: Inhibition of CDK4/cycD3 (unknown origin) by ADP-Glo assay; assay type: protein-complex assay
# [8] = Metabolic stability in human liver microsome assessed as half life at 100 uM pre-incubated with compound for 60 mins followed by NADPH addition and measured up to 60 mins by LC-MS/MS analysis; assay type: ADME; settings: liver microsomes, time < 120 min
# [9] = Clearance in Sprague-Dawley rat at 2 mg/kg, iv measured after 24 hrs by LC-MS/MS analysis; assay type: ADME, organism-based; settings: in vivo
# CYP2D6 = CYP2D6 (Homo sapiens, UniProt P10635); assay: Inhibition of CYP2D6 in human liver microsome at 10 uM pre-incubated with compound for 10 mins in presence of NADPH-regenerating system by LC-MS/MS analysis relative to control; assay type: ADME; settings: liver microsomes
# [10] = Half life in Sprague-Dawley rat at 30 mg/kg, po as submicron emulsion measured after 24 hrs by LC-MS/MS analysis; assay type: ADME, organism-based; settings: in vivo
# HCT-116 [11] = assay: Downregulation of c-Myc mRNA level in human HCT-116 cells at 200 to 400 nM incubated for 48 hrs by qRT-PCR analysis; assay type: functional, cell-based; settings: dose 200-400 nM
# HT-29 = assay: Antiproliferative activity against human HT-29 cells assessed as inhibition of cell growth incubated for 48 hrs by CCK8 assay; assay type: functional
# HCT-116 [12] = assay: Antitumor activity against human HCT-116 cells xenografted in female BALB/c nu-nu mouse assessed as tumor growth inhibition at 20 mg/kg, po as submicron emulsion administered once daily for 3 weeks by vernier caliper analysis; assay type: functional, organism-based
# HCT-116 [13] = assay: Induction of ROS accumulation in human HCT-116 cells at 100 to 400 nM incubated for 48 hrs by […] staining based flow cytometry analysis; assay type: functional, cell-based; settings: dose 100-400 nM
# HCT-116 [14] = assay: Induction of cell cycle arrest in human HCT-116 cells assessed as accumulation of cells at S phase incubated for 48 hrs by PI/RNase staining based flow cytometry analysis; assay type: functional
# HCT-116 [15] = assay: Downregulation of c-Myc level in human HCT-116 cells at 200 to 400 nM incubated for 48 hrs by Western blot analysis; assay type: functional, cell-based; settings: dose 200-400 nM
# [16] = Half life in Sprague-Dawley rat at 2 mg/kg, iv measured after 24 hrs by LC-MS/MS analysis; assay type: ADME, organism-based; settings: in vivo
# HCT-116 [17] = assay: Downregulation of Mcl-1 level in human HCT-116 cells at 200 to 400 nM incubated for 48 hrs by Western blot analysis; assay type: functional, cell-based; settings: dose 200-400 nM
# CDK9/cyclin T1 [18] = target: T1, CDK9/cyclin T1; assay: Binding affinity to CDK9/cyclin T1 (unknown origin) assessed as dissociation constant by SPR analysis; assay type: protein-complex assay
# HCT-116 [19] = assay: Antiproliferative activity against human HCT-116 cells assessed as inhibition of cell growth incubated for 48 hrs by CCK8 assay; assay type: functional
# [20] = AUC (0 to t) in Sprague-Dawley rat at 30 mg/kg, po as submicron emulsion measured after 24 hrs by LC-MS/MS analysis; assay type: ADME, organism-based; settings: in vivo
# [21] = AUC (0 to infinity) in Sprague-Dawley rat at 30 mg/kg, po measured after 24 hrs by LC-MS/MS analysis; assay type: ADME, organism-based; settings: in vivo
# HCT-116 [22] = assay: Induction of apoptosis in human HCT-116 cells assessed as increase in total apoptotic cells incubated for 48 hrs by Annexin V-FITC/PI staining based flow cytometry analysis; assay type: functional, cell-based; settings: dose 100-400 nM
# HepG2 = assay: Cytotoxicity against human HepG2 cells assessed as cell viability incubated for 48 hrs by CCK8 assay; assay type: functional, cell-based
# Mitochondrial membrane = assay: Induction of mitochondrial membrane depolarization in human HCT-116 cells at 100 to 400 nM incubated for 48 hrs by JC-1 staining based flow cytometry analysis; assay type: cell membranes; settings: dose 100-400 nM
# HCT-116 [23] = assay: Antitumor activity against human HCT-116 cells xenografted in female BALB/c nu-nu mouse assessed as increase in caspase-3 cleavage at 40 mg/kg, po incubated for 48 hrs by Western blot analysis; assay type: functional, organism-based
# [24] = Tmax in Sprague-Dawley rat at 30 mg/kg, po measured after 24 hrs by LC-MS/MS analysis; assay type: ADME, organism-based; settings: in vivo
# [25] = Toxicity in female BALB/c nu-nu mouse xenografted with human HCT-116 cells assessed as histopathological changes in heart at 40 mg/kg, po administered once daily for 3 weeks by H and E staining based analysis; assay type: organism-based; settings: in vivo, 504 h
# [26] = Toxicity in female BALB/c nu-nu mouse xenografted with human HCT-116 cells assessed as body weight loss at 40 mg/kg, po administered once daily for 3 weeks; assay type: organism-based; settings: in vivo, 504 h
# [27] = Plasma protein binding in human at 100 uM measured up to 120 mins by LC-MS/MS analysis relative to control; assay type: ADME, cell-free; settings: read-out: PPB (converted)
# HCT-116 [28] = assay: Effect on RNA polymerase II expression in human HCT-116 cells at 100 to 400 nM incubated for 48 hrs by Western blot analysis; assay type: functional, cell-based; settings: dose 100-400 nM
# PANC-1 = assay: Cytotoxicity against human PANC-1 cells assessed as cell viability incubated for 48 hrs by CCK8 assay; assay type: functional, cell-based
# NCI-H226 = assay: Cytotoxicity against human NCI-H226 cells assessed as cell viability incubated for 48 hrs by CCK8 assay; assay type: functional, cell-based
# HCT-116 [29] = assay: Induction of cell senescence in human HCT-116 cells at 100 to 400 nM incubated for 48 hrs by beta-galactosidase staining based analysis; assay type: functional; settings: dose 100-400 nM
# T1 sequence (O60563 whole entry): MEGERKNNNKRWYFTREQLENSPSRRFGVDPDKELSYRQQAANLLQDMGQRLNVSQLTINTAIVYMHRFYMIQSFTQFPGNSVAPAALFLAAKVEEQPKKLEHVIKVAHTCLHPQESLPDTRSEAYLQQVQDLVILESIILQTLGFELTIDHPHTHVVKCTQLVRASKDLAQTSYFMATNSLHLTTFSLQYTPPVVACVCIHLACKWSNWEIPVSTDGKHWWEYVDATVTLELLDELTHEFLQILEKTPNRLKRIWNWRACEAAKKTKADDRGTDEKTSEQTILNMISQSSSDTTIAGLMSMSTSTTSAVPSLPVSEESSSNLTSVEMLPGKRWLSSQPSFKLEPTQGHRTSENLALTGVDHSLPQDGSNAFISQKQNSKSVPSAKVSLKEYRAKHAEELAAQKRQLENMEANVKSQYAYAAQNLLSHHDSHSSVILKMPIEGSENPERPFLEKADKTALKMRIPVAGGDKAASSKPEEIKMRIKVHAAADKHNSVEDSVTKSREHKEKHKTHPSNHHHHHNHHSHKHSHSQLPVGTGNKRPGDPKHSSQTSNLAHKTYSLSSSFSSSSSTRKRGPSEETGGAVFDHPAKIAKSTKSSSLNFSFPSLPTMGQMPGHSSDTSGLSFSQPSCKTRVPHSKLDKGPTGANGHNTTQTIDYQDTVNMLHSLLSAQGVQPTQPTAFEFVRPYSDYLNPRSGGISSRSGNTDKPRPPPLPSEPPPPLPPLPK
# T1 sequence (P50750 whole entry): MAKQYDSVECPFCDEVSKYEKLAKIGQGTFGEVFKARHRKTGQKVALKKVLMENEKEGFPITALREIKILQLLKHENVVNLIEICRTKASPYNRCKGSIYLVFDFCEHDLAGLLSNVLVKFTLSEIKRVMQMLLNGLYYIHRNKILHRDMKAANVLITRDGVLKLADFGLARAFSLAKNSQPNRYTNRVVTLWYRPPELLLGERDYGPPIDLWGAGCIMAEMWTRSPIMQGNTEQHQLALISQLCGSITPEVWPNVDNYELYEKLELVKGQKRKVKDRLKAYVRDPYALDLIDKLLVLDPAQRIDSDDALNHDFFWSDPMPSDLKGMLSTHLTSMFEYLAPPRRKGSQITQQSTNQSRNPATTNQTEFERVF
# Sequence of Cellular tumor antigen p53 (Homo sapiens) (P04637 whole entry, looked up): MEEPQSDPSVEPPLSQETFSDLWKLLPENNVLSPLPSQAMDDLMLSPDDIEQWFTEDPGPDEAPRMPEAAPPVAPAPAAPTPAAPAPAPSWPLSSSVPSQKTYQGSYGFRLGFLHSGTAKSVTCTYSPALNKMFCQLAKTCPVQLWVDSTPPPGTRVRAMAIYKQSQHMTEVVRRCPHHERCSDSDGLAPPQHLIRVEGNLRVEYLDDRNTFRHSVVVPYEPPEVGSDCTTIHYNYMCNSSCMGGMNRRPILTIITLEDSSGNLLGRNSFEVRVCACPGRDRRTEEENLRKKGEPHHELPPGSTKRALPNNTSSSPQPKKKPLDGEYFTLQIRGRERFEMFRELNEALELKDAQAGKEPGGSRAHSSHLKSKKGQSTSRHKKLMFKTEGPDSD
# Sequence of CYP2D6 (P10635 whole entry): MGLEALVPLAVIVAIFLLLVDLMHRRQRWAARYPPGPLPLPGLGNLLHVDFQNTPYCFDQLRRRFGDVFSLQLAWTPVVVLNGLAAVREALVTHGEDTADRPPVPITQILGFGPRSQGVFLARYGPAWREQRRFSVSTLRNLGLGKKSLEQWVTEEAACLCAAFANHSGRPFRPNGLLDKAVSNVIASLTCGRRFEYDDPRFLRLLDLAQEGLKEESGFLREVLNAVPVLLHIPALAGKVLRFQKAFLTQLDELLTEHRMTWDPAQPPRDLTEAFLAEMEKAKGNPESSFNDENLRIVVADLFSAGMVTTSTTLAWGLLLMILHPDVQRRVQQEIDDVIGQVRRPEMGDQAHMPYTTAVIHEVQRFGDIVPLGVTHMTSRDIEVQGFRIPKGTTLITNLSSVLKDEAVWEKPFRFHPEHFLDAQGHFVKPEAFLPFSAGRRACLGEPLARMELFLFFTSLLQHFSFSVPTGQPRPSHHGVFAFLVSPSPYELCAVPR
# Sequence of CDK4/Cyclin D3 (P11802 whole entry): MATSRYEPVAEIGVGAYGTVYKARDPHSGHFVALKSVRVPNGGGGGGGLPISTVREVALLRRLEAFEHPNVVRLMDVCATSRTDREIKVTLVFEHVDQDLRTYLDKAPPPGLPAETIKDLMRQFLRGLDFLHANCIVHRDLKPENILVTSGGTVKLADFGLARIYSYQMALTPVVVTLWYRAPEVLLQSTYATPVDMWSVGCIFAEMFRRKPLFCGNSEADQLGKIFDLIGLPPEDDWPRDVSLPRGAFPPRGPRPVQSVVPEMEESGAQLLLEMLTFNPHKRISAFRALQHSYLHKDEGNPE
# Sequence of CDK4/Cyclin D3 (P30281 whole entry, further chain): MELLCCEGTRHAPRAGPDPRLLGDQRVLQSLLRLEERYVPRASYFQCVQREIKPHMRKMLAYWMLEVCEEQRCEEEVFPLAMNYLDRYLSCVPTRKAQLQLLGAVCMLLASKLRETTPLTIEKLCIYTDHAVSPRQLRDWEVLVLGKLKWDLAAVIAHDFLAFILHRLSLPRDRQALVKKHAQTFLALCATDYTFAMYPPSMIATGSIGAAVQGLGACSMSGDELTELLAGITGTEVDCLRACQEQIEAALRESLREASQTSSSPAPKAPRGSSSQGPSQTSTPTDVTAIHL
compound,measurement,setting,value
CC(C)Oc1cc(F)ccc1-c1ccnc(NC(=O)Nc2cccc(C(=O)N3CCN(C)CC3)c2)c1,Activity,HCT-116 [1],Active
same,bioavailability,[2],26.4%
same,Activity,[3],Active
same,Vd,[4],6.52 L/kg
same,IC50,CDK9/cyclin T1 [5],6.51 nM
same,Activity,A549,Active
same,microsomal CLint at 100 µM,[6],352 µL/min/mg
same,Activity,HCT-116 [7],Active
same,IC50,CDK4/Cyclin D3,1820 nM
same,half-life at 100 µM,[8],3.9 min
same,clearance,[9],81.8 mL/min/kg
same,inhibition at 10 µM,CYP2D6,42.6%
same,half-life,[10],55.2 min
same,Activity,HCT-116 [11],Active
same,GI50,HT-29,190 nM
same,Activity,HCT-116 [12],Active
same,Activity,HCT-116 [13],Active
same,Activity,HCT-116 [14],Active
same,Activity,HCT-116 [15],Active
same,half-life,[16],17.6 min
same,Activity,HCT-116 [17],Active
same,Kd,CDK9/cyclin T1 [18],8870 nM
same,GI50,HCT-116 [19],150 nM
same,AUC(0-t) at 24 h,[20],1610 ng·h/mL
same,AUC,[21],900 ng·h/mL
same,Activity,HCT-116 [22],Dose-dependent-effect
same,Activity,HepG2,Active
same,Activity,Mitochondrial membrane,Active
same,Activity,HCT-116 [23],Active
same,Tmax,[24],15 min
same,Activity,[25],Non-toxic
same,Activity,[26],Non-toxic
same,"fraction unbound at 2 h, 100 µM",[27],0.006
same,Activity,HCT-116 [28],inactive
same,Activity,PANC-1,Active
same,Activity,NCI-H226,Active
same,Activity,HCT-116 [29],Active
